Measurements: publication PMC3436892, “Novel African Trypanocidal Agents: Membrane Rigidifying Peptides” (PLoS ONE, 2012)

How the values were obtained:
BSF T. b. brucei VSG = test: FRAP of surface VSG; assay type: cell-based, strain 427; conditions: 8 µM peptide, 10 min at 37°C, cells immobilized in gelatin, line FRAP at 20°C (Fig. 2c)
Procedure: Bloodstream form T. b. brucei, strain 427, expressing VSG MITat1.6 were cultivated in HMI 9 media with 10% fetal calf serum. 1×10^7 cells were washed three times with ice cold trypanosome dilution buffer (TDB; 5 mM KCl, 80 mM NaCl, 1 mM MgSO4, 20 mM Na2HPO4, 2 mM NaH2PO4, 20 mM glucose, pH 7.6). The cell density was adjusted to 1×10^8 cells/mL and labeling of surface proteins was achieved by incubation with 1 µM sulfo-NHS coupled Atto 488 fluorescent dye (ATTO-TEC GmbH, Siegen) for 15 min on ice. After incubation the cells were washed three times with ice cold TDB to remove unbound dye. Labeled T. b. brucei cells were incubated with 8 µM SHP-1 for 10 min at 37°C. The fluorescently labeled cells were mixed 1∶3 with 10% Type-A gelatin from porcine skin (Sigma-Aldrich, Steinheim) in PBS, pH 7.8, at 37°C. 4 µL of the cell gelatin mixture was applied into a cover slide sandwich and mounted into a temperature controlled sample holder. The sample holder was cooled to 20°C until the cells were immobilized. Samples of SHP-1 treated and untreated MITat 1.6 wt cells were prepared identically. […] 10 pre-bleach and 100 post-bleach images were recorded at 2fps. VSG mobile fractions were determined according to Phair et al. (2004) using double normalization. The mobile fraction refers to the percentage of mobile VSG molecules within the measured region. […]

[1] = Parallax analysis of tryptophan penetration depth; assay type: physicochemical; conditions: 500 nM peptide, PBS, 37°C, 22 h
Procedure: The hydrocarbon penetration depth of tryptophans spaced throughout synthetic peptides corresponding to SHP-1 or SHP-3 (Table S1) was determined by parallax analysis with brominated phosphatidylcholine liposomes. Large unilamellar liposomes composed of egg phosphatidylcholine and 10 mol % 1-palmitoyl-2-(6,7-dibromo)stearoyl-sn-glycero-3-phosphocholine (shallow quencher) or 1-palmitoyl-2-(9,10-dibromo)stearoyl-sn-glycero-3-phosphocholine (deep quencher) were constructed by hydration of a thin dry lipid film with phosphate buffered saline. Resulting multilamellar liposomes were made unilameller via extrusion through polycarbonate filters with 0.1 µm pores. Peptides (500 nM) were incubated with 200 µg/ml liposomes in phosphate buffered saline at 37°C for 22 h. Tryptophan fluorescence at 357 nm was measured from at least triplicate trials in the PerkinElmer Life Sciences LS55 spectrofluorometer and an excitation wavelength of 280 nm for SHP-1 and 290 nm for SHP-2, 10 nm excitation and 9 nm emission slit widths. The distance of tryptophans from the bilayer center (ZCF) is calculated from the equation [12]: [drawing 1] Where LC1 is the distance from the center of the bilayer to the shallow quencher, in this case 10.8 Å for 6,7-dibromo-PC [25], F1 is the intensity of tryptophan in the presence of the shallow quencher and F2 is the tryptophan intensity in the presence of the deep quencher, C is the mole fraction of quencher divided by the area of individual phospholipid (70 Å^2), and L21 is the difference in the depth of the two quenchers (2.7 Å). The hydrocarbon insertion depth of tryptophans is then given by one half the bilayer thickness, 29 Å [25], minus ZCF.

SDLGAVISLLLWGRQLFA [SHP-1, trypanocidal small hydrophobic peptide derived from an apolipoprotein, with characteristics of a secretory signal peptide]
fraction of laterally mobile surface exposed VSG (BSF T. b. brucei VSG): decreases
distance of tryptophan at position 1 from the membrane interface ([1]; Trp-substituted variant W1, 200 µg/ml egg PC liposomes with 10 mol % 6,7- or 9,10-dibromo-PC, bilayer thickness 29 Å, at least triplicate): approximately 1.1 Å
distance of tryptophan at position 8 from the membrane interface ([1]; Trp-substituted variant W8, 200 µg/ml brominated egg PC liposomes): approximately 7.8 Å
distance of tryptophan at position 18 from the membrane interface ([1]; Trp-substituted variant W18, 200 µg/ml brominated egg PC liposomes): ~2.0 Å
distance of tryptophan at position 12 from the membrane interface ([1]; native tryptophan, 200 µg/ml brominated egg PC liposomes): ~5.1 Å
F1/F2 ± S.D. ([1]; ratio of tryptophan fluorescence intensity (357 nm) with shallow (6,7-dibromo-PC, F1) and deep (9,10-dibromo-PC, F2) quencher, 200 µg/ml liposomes, at least triplicate): 0.9676 ± 0.0560
